In US6069177A, “3-Hydroxy-propanamine derived neuronal reuptake inhibitors” (priority 1997, dated 2000):
Entries after “also recorded” stand apart in the source; their conditions may differ. Where two headings read alike, the source gives them in different places.

How the values were obtained:
[1] = target: T1, DA reuptake into rat brain synaptosomes (Rattus norvegicus, UniProt P23977); assay: DA reuptake inhibition in rat brain synaptosomes; type: biochemical, rat (male Sprague-Dawley), striatal tissue; settings: for DA (Rat) Reuptake Inhibition Potency: Ki (DA)/Ki (compound or drug), Prozac to Serzone derived from literature Ki
T1 construct: A crude synaptosomal (P2) fraction was prepared; tissue Harlan Sprague-Dawley (animals); host or cells: rat striatum, crude synaptosomal (P2) fraction

[2] = system: 5-HT, NE and DA reuptake into rat brain synaptosomes; type: biochemical, rat (male Sprague-Dawley); settings: for block uptake of all three neurotransmitters (5-HT, NE, and DA), Ki in words: rat brain synaptosomes
Procedure: (§1) Briefly, the tissue was homogenized in 20 volumes of ice-cold 0.32 M sucrose containing 11 mM glucose, pH 7.4 in a glass Potter-Elvehjemhomogenizer with teflon pestle (8 strokes, 900 rpm). The homogenate was centrifuged at 1,000 g for 10 minutes. The resulting supernatant was then centrifuged at 20,000 g for 20 minutes and the supernatent was discarded.
(§2) Briefly, synaptosomal protein (1.0-2.5 mg) was suspended in a total volume of 1 mL containing oxygenated incubation buffer, 10 μM pargyline to inhibit monoamine oxidase activity, 0.2 mg/mL sodium ascorbate and varying concentrations of other compounds or drugs as indicated in the text. […] After a 5 minute preincubation at 37° C. in a shaking water bath (80 oscillations/minute), the uptake was initiated by the addition of […]. The reaction was stopped after 5 minute by adding 4 mL ice-cold 0.9% (w/v) sodium chloride and rapidly filtered through a Whatman GF/B glass fiber filter in a 48-place Brandel cell harvester. The filter was then washed with an additional 8 mL of wash buffer, placed in a scintillation vial containing 5 mL of Redi-Safe (Beckman Instruments, Fullerton, Calif.) and counted. Specific uptake was calculated as the difference between the total uptake (zero unlabelled ligand) and nonspecific uptake (excess unlabelled ligand).

[3] = system: hSERT, hNET, and hDAT; assay: Simultaneous binding to cloned human transporters hSERT, hNET and hDAT; settings: for Simultaneous Transporter Binding Potency: Table 4, each of the potency values greater than 7.0; for Simultaneous Transporter Binding Potency (Human): Table 5, comparison of rat and human data; for simultaneous transporter binding potency, in words: human, each value ≥7.0
Procedure: (§3) These transporters are responsible for neuronal reuptake of the neurotransmitters.
(§4) Cells were incubated in 10% CO2, 90% air at 37° C. and 100% humidity. The selecting antibiotic geneticin sulfate (250 μg/ml) was used during the cell culture for the hNET only.
(§5) For the preparation of homogenates, medium was removed by aspiration. […] Cells were then scraped from the surface with a rubber spatula into a centrifuge tube and collected by centrifugation at 1000×g for 5 min at 4° C. Supernatants were decanted and the pellet was resuspended in the appropriate binding buffer and homogenized with the use of a Polytron for 10 sec at setting 6. This solution was centrifuged at about 36,000×g for 10 minutes (4° C.). The pellet was suspended in the same volume of buffer and the centrifugation was repeated. The supernatants were decanted and the final pellet was suspended in the appropriate buffer and stored at -80° C. until use.
(§6) For the membranal preparation, cells were homogenized in 50 mM Tris-HCl with 120 mM NaCl and 5 mM KC1 (pH 7.4). […] The reaction mixture was incubated at 22° C. for 30 min. The assay was terminated by rapid filtration of the contents of each tube through a GF/B filter strip, which had been pretreated with 0.2% polyethylenimine, with the use of a 48-well Brandel cell harvester. The filter strips were then rinsed five times with ice-cold 0.9% NaCl. Next, individual filters were cut from the strip and placed in a scintillation vial containing 6.5 mL of Redi-Safe (Beckman Instruments, Fullerton, Calif.). Radioactivity was measured with a Beckman liquid scintillation counter (LS 5000TD).
For the membranal preparation, cells were homogenized in 50 mM Tris-HCl with 300 mM NaCl and 5 mM KCl (pH 7.4). […] The reaction mixture was incubated at 22° C. for 60 min. The remaining methods were exactly as described for hSERT above.
(§7) For the membranal preparation, cells were homogenized in the 50 mM Tris-HCl with 120 mM NaCl (pH 7.4). […] The reaction mixture was incubated at 4° C. for 2 hr. The remaining methods were exactly as described for hSERT above.
(§8) The program was modified by the inventors to calculate the Hill Coefficient (nH). […] One-component models and two-component models were compared using the root mean square error of each fit and the F test.

[4] = target: T2, human dopamine transporter (hDAT) (Homo sapiens, UniProt Q01959); assay: [3H]WIN35428 binding to cloned human DAT; settings: Kd (DA)/Kd (compound or drug) in the hDAT binding assay
T2 construct: expressed in transfected cells; membranes of cells expressing the cloned hDAT
Procedure: as §3, §4, §5, §7, §8

[5] = target: T3, human serotonin transporter (hSERT) (Homo sapiens, UniProt P31645); type: binding
T3 construct: expressed in transfected cells; membranes of cells expressing the cloned hSERT
Procedure: as §3, §4, §5, §6, §8

[6] = target: T4, 5-HT reuptake into rat brain synaptosomes (Rattus norvegicus, UniProt P31652); assay: 5-HT reuptake inhibition in rat brain synaptosomes; type: biochemical, rat (male Sprague-Dawley), cortical tissue; settings: Ki (5-HT)/Ki (compound or drug); Prozac to Serzone derived from literature Ki
T4 construct: A crude synaptosomal (P2) fraction was prepared; tissue Harlan Sprague-Dawley (animals); host or cells: rat cerebral cortex, crude synaptosomal (P2) fraction
Procedure: as §1, §2

[7] = target: human norepinephrine transporter (hNET) (Homo sapiens, UniProt P23975); type: binding; settings: Kd (NE)/Kd (compound or drug) in the hNET binding assay
[8] = target: T5, NE reuptake into rat brain synaptosomes (Rattus norvegicus, UniProt Q63380); assay: biochemical; parameters: species or system rat (male Sprague-Dawley), hippocampal tissue
T5 construct: A crude synaptosomal (P2) fraction was prepared; tissue Harlan Sprague-Dawley (animals); host or cells: rat hippocampus, crude synaptosomal (P2) fraction

[9] = Table 5, comparison of rat and human data
[10] = Kd (5-HT)/Kd (compound or drug) in the hSERT binding assay

T2 sequence (Q01959 whole entry): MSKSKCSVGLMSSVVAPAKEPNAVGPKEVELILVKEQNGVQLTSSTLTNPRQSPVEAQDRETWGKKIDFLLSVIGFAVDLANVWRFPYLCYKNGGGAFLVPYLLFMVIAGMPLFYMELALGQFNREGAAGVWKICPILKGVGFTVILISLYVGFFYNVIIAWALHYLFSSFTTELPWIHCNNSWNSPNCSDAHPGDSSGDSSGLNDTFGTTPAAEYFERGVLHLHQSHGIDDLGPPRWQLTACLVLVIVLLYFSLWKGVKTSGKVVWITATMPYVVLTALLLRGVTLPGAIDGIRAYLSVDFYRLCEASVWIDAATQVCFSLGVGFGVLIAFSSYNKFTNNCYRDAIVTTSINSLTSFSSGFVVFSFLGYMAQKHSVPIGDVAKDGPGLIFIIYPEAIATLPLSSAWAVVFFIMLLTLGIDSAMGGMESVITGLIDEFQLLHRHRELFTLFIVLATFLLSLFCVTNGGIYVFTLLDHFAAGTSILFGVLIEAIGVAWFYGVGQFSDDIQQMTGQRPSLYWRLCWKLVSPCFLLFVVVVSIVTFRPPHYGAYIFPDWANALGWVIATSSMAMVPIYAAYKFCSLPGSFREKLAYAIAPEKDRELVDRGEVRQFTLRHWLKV
T1 sequence (P23977 whole entry): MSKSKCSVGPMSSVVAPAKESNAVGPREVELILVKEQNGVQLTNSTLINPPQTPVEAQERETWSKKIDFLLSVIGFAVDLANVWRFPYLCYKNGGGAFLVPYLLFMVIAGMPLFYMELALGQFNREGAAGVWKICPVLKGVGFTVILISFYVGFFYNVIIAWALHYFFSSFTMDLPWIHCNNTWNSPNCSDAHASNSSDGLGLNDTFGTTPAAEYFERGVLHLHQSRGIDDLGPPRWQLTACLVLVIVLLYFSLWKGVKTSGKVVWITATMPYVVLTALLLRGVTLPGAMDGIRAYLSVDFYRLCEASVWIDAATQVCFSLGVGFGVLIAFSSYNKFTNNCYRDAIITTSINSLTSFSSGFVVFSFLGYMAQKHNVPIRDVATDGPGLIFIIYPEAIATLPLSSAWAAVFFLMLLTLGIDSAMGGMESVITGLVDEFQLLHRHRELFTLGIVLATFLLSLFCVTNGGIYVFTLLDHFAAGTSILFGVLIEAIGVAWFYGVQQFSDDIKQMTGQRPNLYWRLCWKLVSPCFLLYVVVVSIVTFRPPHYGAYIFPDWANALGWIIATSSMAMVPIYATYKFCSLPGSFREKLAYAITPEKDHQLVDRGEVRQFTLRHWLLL
T3 sequence (P31645 whole entry): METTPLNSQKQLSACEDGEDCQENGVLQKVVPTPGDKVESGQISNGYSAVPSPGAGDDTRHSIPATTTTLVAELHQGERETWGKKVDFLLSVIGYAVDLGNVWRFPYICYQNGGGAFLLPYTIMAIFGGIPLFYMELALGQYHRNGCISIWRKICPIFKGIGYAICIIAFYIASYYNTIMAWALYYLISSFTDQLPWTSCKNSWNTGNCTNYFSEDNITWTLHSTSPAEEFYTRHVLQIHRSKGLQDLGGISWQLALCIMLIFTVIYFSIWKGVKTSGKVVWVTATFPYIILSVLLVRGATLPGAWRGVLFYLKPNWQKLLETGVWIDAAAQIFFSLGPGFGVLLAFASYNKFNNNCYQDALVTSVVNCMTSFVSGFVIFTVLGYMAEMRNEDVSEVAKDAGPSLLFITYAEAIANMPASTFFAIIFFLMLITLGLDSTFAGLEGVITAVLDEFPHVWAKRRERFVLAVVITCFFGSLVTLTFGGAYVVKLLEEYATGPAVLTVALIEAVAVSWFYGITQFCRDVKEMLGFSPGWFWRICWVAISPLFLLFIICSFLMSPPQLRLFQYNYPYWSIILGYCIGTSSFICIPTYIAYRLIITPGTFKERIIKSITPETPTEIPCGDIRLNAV
Sequence of human norepinephrine transporter (hNET) (P23975 whole entry): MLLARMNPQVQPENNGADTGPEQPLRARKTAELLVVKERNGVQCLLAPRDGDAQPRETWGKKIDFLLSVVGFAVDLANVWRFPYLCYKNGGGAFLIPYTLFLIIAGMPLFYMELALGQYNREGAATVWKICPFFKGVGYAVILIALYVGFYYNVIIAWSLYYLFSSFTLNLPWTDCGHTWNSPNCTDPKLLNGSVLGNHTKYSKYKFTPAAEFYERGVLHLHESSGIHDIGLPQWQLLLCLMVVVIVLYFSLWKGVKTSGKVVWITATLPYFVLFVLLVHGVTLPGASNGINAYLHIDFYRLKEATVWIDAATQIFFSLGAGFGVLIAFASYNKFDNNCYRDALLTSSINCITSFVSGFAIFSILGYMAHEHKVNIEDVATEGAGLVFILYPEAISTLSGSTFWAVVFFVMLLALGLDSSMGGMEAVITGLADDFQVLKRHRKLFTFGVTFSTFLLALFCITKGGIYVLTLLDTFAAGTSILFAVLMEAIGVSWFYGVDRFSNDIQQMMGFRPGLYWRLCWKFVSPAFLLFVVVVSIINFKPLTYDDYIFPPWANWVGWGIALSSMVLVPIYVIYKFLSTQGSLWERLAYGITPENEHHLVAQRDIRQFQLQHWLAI
T5 sequence (Q63380 1-617): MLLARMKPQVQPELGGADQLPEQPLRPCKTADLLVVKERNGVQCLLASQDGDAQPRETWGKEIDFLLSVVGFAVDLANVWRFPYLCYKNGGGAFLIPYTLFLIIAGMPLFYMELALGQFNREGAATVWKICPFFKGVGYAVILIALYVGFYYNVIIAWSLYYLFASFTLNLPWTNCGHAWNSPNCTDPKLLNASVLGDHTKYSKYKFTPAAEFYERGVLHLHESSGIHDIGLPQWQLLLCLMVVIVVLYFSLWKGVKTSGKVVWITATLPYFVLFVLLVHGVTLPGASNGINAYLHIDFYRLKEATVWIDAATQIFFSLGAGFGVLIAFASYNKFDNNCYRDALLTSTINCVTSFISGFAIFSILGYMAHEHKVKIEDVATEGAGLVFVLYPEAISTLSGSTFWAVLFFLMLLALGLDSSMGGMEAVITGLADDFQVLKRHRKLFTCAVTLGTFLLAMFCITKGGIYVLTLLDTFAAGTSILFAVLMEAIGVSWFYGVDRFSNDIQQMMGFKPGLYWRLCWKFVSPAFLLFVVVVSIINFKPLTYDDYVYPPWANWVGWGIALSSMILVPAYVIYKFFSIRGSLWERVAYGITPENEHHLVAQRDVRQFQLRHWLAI
T4 sequence (P31652 whole entry): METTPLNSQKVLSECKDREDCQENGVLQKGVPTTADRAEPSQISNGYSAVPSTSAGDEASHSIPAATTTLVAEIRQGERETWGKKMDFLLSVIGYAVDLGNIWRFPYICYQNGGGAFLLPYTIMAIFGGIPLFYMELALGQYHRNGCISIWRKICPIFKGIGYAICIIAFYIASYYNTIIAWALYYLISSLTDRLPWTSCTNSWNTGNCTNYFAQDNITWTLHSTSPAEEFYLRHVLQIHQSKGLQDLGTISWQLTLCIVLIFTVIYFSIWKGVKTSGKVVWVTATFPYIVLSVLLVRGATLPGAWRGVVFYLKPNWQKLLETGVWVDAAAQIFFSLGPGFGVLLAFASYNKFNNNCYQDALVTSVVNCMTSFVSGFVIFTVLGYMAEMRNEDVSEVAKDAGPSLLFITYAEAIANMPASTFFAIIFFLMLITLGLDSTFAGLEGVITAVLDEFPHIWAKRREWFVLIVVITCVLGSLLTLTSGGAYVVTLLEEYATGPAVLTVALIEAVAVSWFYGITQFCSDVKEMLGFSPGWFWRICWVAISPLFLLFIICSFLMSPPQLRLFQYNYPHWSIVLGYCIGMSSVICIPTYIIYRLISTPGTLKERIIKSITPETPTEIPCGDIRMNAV

SMILES | DA (Rat) Reuptake Inhibition Potency [1] | Simultaneous Reuptake Inhibition Potency [2] | Simultaneous Transporter Binding Potency [3] | Simultaneous Transporter Binding Potency (Human) [3] | simultaneous transporter binding potency, in words [3] | hDAT Binding Potency [4] | simultaneous reuptake inhibition potency, in words [2] | Simultaneous Reuptake Inhibition Potency (Rat) [2, 9] | block uptake of all three neurotransmitters (5-HT, NE, and DA), Ki in words [2] | hSert Binding Potency [5, 10] | further results
COc1ccc(C(CN(C)C)C2(O)CCCCC2)cc1 (centres unmarked) [Effexor ®, reference compound] | 0.18 | no | – | – | – | – | – | – | – | – | Simultaneous Reuptake Inhibition Potency (Rat) [2]: no
CN(C)C[C@H](c1ccc2ccccc2c1)[C@H](O)c1ccccc1 (relative stereo) [Compound B, (2RS,3RS)-3-Hydroxy-2-(2'-naphthyl)-3-phenylpropyl-N, N-dimethylammonium chloride] | – | yes (A compound or drug is considered to possess simultaneous reuptake inhibition potency if each of the potency values is greater than 1.0.) | yes (A compound or drug is considered to possess "simultaneous transporter binding potency" if each of the potency values is greater than 7.0.) | yes (A compound or drug is considered to possess "simultaneous transporter binding potency" if each of the potency values is greater than 7.0.) | qualify for simultaneous transporter binding potency | 34.3 | possess the quality of "simultaneous reuptake inhibition potency" | yes (A compound or drug is considered to possess simultaneous reuptake inhibition potency if each of the potency values is greater than 1.0.) | nanomolar to 10 nanomolar range | – | simultaneous transporter binding potency, tightened criterion ([3]; all potency values must be greater than 30): still qualifies; reuptake inhibition of all three neurotransmitters in both the rat and human models, in words [2]: potently inhibit reuptake of all three neurotransmitters in both the rat and human models; hSert Binding Potency [5]: 376
NC[C@H](c1ccc2ccccc2c1)[C@H](O)c1ccccc1 (relative stereo) [Compound D, (2RS,3RS)-3-Hydroxy-2-(2'-naphthyl)-3-phenyl-propylammoni um chloride] | – | no | yes (A compound or drug is considered to possess "simultaneous transporter binding potency" if each of the potency values is greater than 7.0.) | yes (A compound or drug is considered to possess "simultaneous transporter binding potency" if each of the potency values is greater than 7.0.) | qualify for simultaneous transporter binding potency; also recorded: meets the criterion for simultaneous transporter binding potency | 16.8 | narrowly misses the criterion for simultaneous reuptake inhibition potency | no | nanomolar to 10 nanomolar range | 340 | 5-HT (Rat) Reuptake Inhibition Potency [6]: 0.68
CC(C)(C)[C@@H](O)[C@H](CN)c1ccc2ccccc2c1 (relative stereo) [Compound C, (2RS,3RS)-3-hydroxy-4,4-dimethyl-2-(2'-naphthyl)pentyl-ammonium chloride] | 0.57 | no | no | no | – | 0.09 | – | no | – | 347 | hNet Binding Potency [7]: 39.9
CNCC[C@@H](Oc1ccccc1C)c1ccccc1 [Tomoxetine, reference compound] | – | no | – | – | – | – | – | – | – | – | –
CN(C)C[C@H](c1ccc2ccccc2c1)[C@H](O)C(C)(C)C (relative stereo) [Compound A, (2RS,3RS)-3-Hydroxy-4,4-dimethyl-2-(2'-naphthyl)pentyl-N, N-dimethyl-ammonium chloride] | 1.11 | yes (A compound or drug is considered to possess simultaneous reuptake inhibition potency if each of the potency values is greater than 1.0.) | yes (A compound or drug is considered to possess "simultaneous transporter binding potency" if each of the potency values is greater than 7.0.) | yes (A compound or drug is considered to possess "simultaneous transporter binding potency" if each of the potency values is greater than 7.0.) | qualify for simultaneous transporter binding potency | 7.16 | possess the quality of "simultaneous reuptake inhibition potency" | yes (A compound or drug is considered to possess simultaneous reuptake inhibition potency if each of the potency values is greater than 1.0.) | nanomolar to 10 nanomolar range | 1,750 | hNet Binding Potency [7]: 73.6; NE (Rat) Reuptake Inhibition Potency ([8]; Ki (NE)/Ki (compound or drug), Prozac to Serzone derived from literature Ki): 12.0; Ki ([8]; rat brain synaptosomes): 10 ± 1 nM; Ki ([1]; rat brain synaptosomes): 60 ± 10 nM; reuptake inhibition of all three neurotransmitters in both the rat and human models, in words [2]: potently inhibit reuptake of all three neurotransmitters in both the rat and human models
CNCCC(Oc1ccc(C(F)(F)F)cc1)c1ccccc1 (centres unmarked) [Prozac ®, reference compound] | 0.02 | no | – | – | – | – | – | – | – | – | Simultaneous Reuptake Inhibition Potency (Rat) [2]: no
CCc1nn(CCCN2CCN(c3cccc(Cl)c3)CC2)c(=O)n1CCOc1ccccc1 [Serzone ®, reference compound] | 0.03 | – | – | – | – | – | – | – | – | – | Simultaneous Reuptake Inhibition Potency ([2]; Table 2, each of the potency values greater than 1.0): no
